Experimental data from patent US8551951B2, “Pharmaceutical preparations and methods for inhibiting tumors” (Aenorasis SA Pharmaceuticals and Medical Devices, priority 2000, dated 2013).

What was measured:
PC-3 cells = assay: DNA fragmentation assay (DNA ladder, apoptosis); format: cell-based, human
Procedure: Cell apoptosis result in DNA fragmentation can be evaluated by the presence of a DNA ladder visualized when DNA is run on a 1.2% agarose gel. DNA ladder assay (apoptosis assay) was performed following exposure of PC-3 to various concentrations of the polypeptides for 72 hours. The polypeptides that were used in this particular experiment are polypeptide 7-21 (SEQ ID NO: 4), polypeptide PCK3145 (SEQ ID NO: 5) and polypeptide 76-94 (SEQ ID NO: 6). […] This effect was especially evident following treatment with PCK3145 (SEQ ID NO: 5), which is illustrated by FIG. 7. Lane 1 of the gel illustrated in FIG. 7 represents a lambda HindIII digest standard.
Apoptosis of PC-3 cells, following a 72 hours exposure to PCK3145 at 500 μg/ml concentration, was evaluated in supplemented media by DNA fragmentation assay. Doxorubicin was used as a reference positive control. Untreated cells and PCK3145-treated cells were harvested and the DNA was isolated. Isolated DNA was run on a 1.2% agarose gel containing Ethidium Bromide (EtBr). […] Lane 1 of the gel illustrated in FIG. 25 represents the DNA marker (100 base pair DNA ladder). Lane 2 of the gel illustrated in FIG. 25 represents a control of untreated PC-3 cells.

Mat Ly Lu (MLL) tumor [1] = assay: Study MLL-1, Mat LyLu tumor implanted in nude mice; format: in vivo; conditions: Doxorubicin 5 mg/kg i.v. single bolus on day 3; p=0.006
Procedure: (§1) Studies MLL-1 and MLL-2 were performed as follows; on day 0, male Copenhagen rats were injected subcutaneously with 5×10^5 Mat LyLu cells per rat. These cells were derived from cultures of Mat LyLu cell line grown in RPMI media containing 10% (v/v) of fetal calf serum in logarithmic phase of growth. Cells were harvested from the culture flasks by trypsinization, were centrifuged at 1200 rotation per minute (rpm) and washed three timed with Hanks balanced salt solution (HBSS). Following washing, cells were counted and adjusted to a concentration of 5×10^6 cells/ml in HBSS. A 0.1 ml volume of tumor cell inoculum containing 5×10^5 cells was administered subcutaneously into the flank region of each rat. Three days after tumor cell implantation (i.e., inoculation), animals were treated daily by a subcutaneous injection of the desired polypeptide until day 13.
Experiments illustrated in FIG. 12 show the anti-tumor efficacy validation of rHuPSP94 against Mat LyLu (MLL) tumor implanted in nude mice (Protocol based on S. Garde et al.; The Prostate, 22: 225-233, 1993).
For study MLL-1 (FIG. 12), tumor-implanted nude mice were separated in different groups, each receiving various amount of rHuPSP94 or control reagents. The different groups used in these experiments are illustrated below. Each group contained 8 mice.

Mat Ly Lu (MLL) tumor [2] = assay: Study MLL-2, Mat Ly Lu tumor implanted in SCID mice; format: in vivo; conditions: Doxorubicin 5 mg/kg i.v. single bolus on day 3; p=0.002
Procedure: as §1
Experiments illustrated in study MLL-2 show the anti-tumor efficacy validation of rHuPSP94 against Mat Ly Lu (MLL) tumor implanted in severe combined immunodeficiency (SCID) mice (Protocol based on S. Garde et al.; The Prostate, 22: 225-233, 1993).
For study MLL-2 (FIG. 13), tumor-implanted Scid mice were separated in different groups each receiving various amounts of rHuPSP94 or control reagents. The different groups used in these experiments are illustrated below. Each group contained 8 mice.

human PC-3 tumor = assay: Studies PC3-6 and PC3-12, human PC-3 prostate cancer nude mouse xenograft model; format: in vivo, nude mice; conditions: Doxorubicin 10000 μg/kg single bolus i.v. on days 3 and 11 p.t.i
From the text: Studies PC3-6 and PC3-12 (FIGS. 26-27) are consecutive group experiments designed to characterize the in vivo activity of PCK3145 in the human PC-3 prostate cancer nude mouse xenograft model and to explore relationships between dose, route and schedule of administration and the efficacy parameters of tumor growth (volume).
PC-3 cells harvested in mid-log phase were inoculated at 5×10^6 cells per mice via the subcutaneous route in the mice's back area. Tumors grown from this inoculum were excised at approximately day 32 to 35 post-tumor implantation (p.t.i) when tumor volume reached 200-300 mm^3 (i.e., cu mm). The necrotic tissue was removed and the viable tumor mass cut into small pieces (approximately 1 to 3 mm^3) were implanted SC in the flank region at two opposite sites of the mouse. Treatment with various concentrations of PCK3145 was initiated at day 3 post-tumor implantation (p.t.i) and was continued daily for 21 days. Subcutaneous injections were done below tumor growth sites. Intra-peritoneal injections were performed in the abdominal region. Intra-venous injections were performed via the lateral tail vein. The experiment was terminated 24 hours after the last treatment. Tumor measurements were taken at Days 11, 14, 16, 18, 20, 22 and 24 post-tumor implantation (p.t.i). Tumor volumes were calculated according to formula (a×b^2×0.5), where a—is the length of the long diameter, and b—is the width of the perpendicular small diameter.
Study No: PC3-6 illustrates the efficacy of PCK3145, injected subcutaneously, in tumor growth retardation in Nude mice, which have received PC-3 implants. Mice were separated in different group each receiving various amounts of PCK3145 (SEQ ID NO: 5) or control reagents. The different groups used in these experiments are illustrated in table 6 below. Each group contained 10 mice. Doxorubicin was administered as single bolus intra-venous injection on days 3 and 11 post-tumor implantation (p.t.i).
Study No: PC3-12 illustrates the efficacy of PCK3145 in tumor growth retardation in Nude mice, which have received PC-3 implants. Mice were separated in different group each receiving various amounts of PCK3145 (SEQ ID NO: 5) or control reagents. PCK3145 was injected either through intra-venous or intra-peritoneal route. The different groups used in these experiments are illustrated in table 7 below. Each group contained 9 mice.

Dunning Mat Ly Lu tumors = assay: Studies MLL-5 and MLL-6, Mat Ly Lu tumor implanted in Copenhagen rats; format: in vivo; conditions: Doxorubicin 5000 μg/kg single bolus i.v. on day 3 p.t.i
Procedure: Anti-tumor efficacy evaluation of PCK3145 against Mat Ly Lu (MLL) tumor implanted in Copenhagen rats was performed. (Protocol based on S. Garde et al.; The Prostate, 22: 225-233, 1993). Mat LyLu tumor cells were harvested in mid-log phase from the culture flasks by trypsinization, were centrifuged at 1200 rotation per minute (rpm) and washed three timed with Hanks balanced salt solution (HBSS). Following washing, cells were counted and adjusted to a concentration of 5×10^6 cells/ml in HBSS. A 0.1 ml volume of tumor cell inoculum containing 5×10^5 cells was administered subcutaneously into the flank region of each rat. Treatment started at day 3 post-tumor implantation (p.t.i) by local subcutaneous injection (i.e., in the shaved back area just below tumor implantation site) of various PCK3145 concentrations. This treatment was continued daily for 16 days. Experiments were terminated 24 hours after the last treatment. Tumor measurements were taken at days 7, 9, 11, 14, 16 and 18. Tumor volumes are calculated according to formula (a×b^2×0.5), where a—is the length of the long diameter, b—width of the perpendicular small diameter. At day 19 tumors of individual rats were excised and weighed.
Study No: MLL-5 illustrates the efficacy of PCK3145 (SEQ ID NO: 5) compared with polypeptide 7-21 (SEQ ID NO: 4) and polypeptide 76-94 (SEQ ID NO: 6) in tumor growth retardation in Copenhagen rats, which have received Mat Ly Lu implants. Mice were separated in different groups, each receiving various amount of PCK3145 (SEQ ID NO: 5) or control reagents. PCK3145 was injected through the subcutaneous route. The different groups used in these experiments are illustrated in table 8 below. Each group contained 8 mice.
Study No: MLL-6 illustrates the efficacy of PCK3145 (SEQ ID NO: 5) in tumor growth retardation in Copenhagen rats, which have received Mat Ly Lu implants. Mice were separated in different group each receiving various amounts of PCK3145 (SEQ ID NO: 5) or control reagents. PCK3145 was injected through the subcutaneous route. The different groups used in these experiments are illustrated in table 9 below. Each group contained 8 mice. Doxorubicin was administered as single bolus via intra-venous injection on day 3 p.t.i.

Compound: COc1cccc2c1C(=O)c1c(O)c3c(c(O)c1C2=O)C[C@@](O)(C(=O)CO)C[C@@H]3O[C@H]1C[C@H](N)[C@H](O)[C@H](C)O1 [Doxorubicin, reference compound]
- DNA laddering effect (FIG. 25 lane 3) (PC-3 cells; 2 μg/ml): DNA laddering effect
- DNA laddering effect (FIG. 7 lane 2) (PC-3 cells; doxorubicin-treated cells): DNA laddering effect
- tumor weight reduction (Mat Ly Lu (MLL) tumor [1]): 48%
- tumor weight reduction (Mat Ly Lu (MLL) tumor [2]): 82%
- tumor growth (volume), study PC3-6 (human PC-3 tumor): highly significant anti-tumor therapeutic effect
- reduction in tumor volumes, study MLL-6 (Dunning Mat Ly Lu tumors): over 80%
